Values quoted from earlier work in US20140030241A1 (NESTEC S.A., priority 2011, published 2014).

Key:
IgG and IgM response = settings: rodents
Candida albicans = settings: rodents on nucleotide free diet, Candida albicans challenge
Splenic lymphocytes = settings: rodents on nucleotide free diets, additions to the diet
[1] = enters circulation without being metabolized by the liver

Row | SMILES | IgG response (IgG and IgM response) | survival time (Candida albicans) | also measured
1 | O=c1ccn([C@@H]2O[C@H](COP(=O)(O)O)[C@@H](O)[C@H]2O)c(=O)[nH]1 [UMP, 5′-Uracil Monophosphate] | increased IgG response | – | –
2 | Nc1nc2c(ncn2[C@@H]2O[C@H](COP(=O)(O)O)[C@@H](O)[C@H]2O)c(=O)[nH]1 [GMP, 5′-Guanosine Monophosphate] | increased IgG response | – | IgM response (IgG and IgM response): increase IgM response
3 | Nc1ncnc2nc[nH]c12 [adenine] | – | not | –
4 | O=c1cc[nH]c(=O)[nH]1 [uracil] | – | increase survival time | suppressed cell-mediated immune responses (proliferation to mitogens, IL-2 production, IL-2 receptor and Lyt-1 markers, delayed cutaneous hypersensitivity) (Splenic lymphocytes): largely reversed
5 | Nc1ncnc2c1ncn2[C@@H]1O[C@H](COP(=O)(O)O)[C@@H](O)[C@H]1O [AMP, 5-Adenosine Monophosphate] | increased IgG response | – | –
6 | NC(=O)NCCC[C@H](N)C(=O)O [citrulline] | – | – | conversion to arginine in the kidneys [1]: almost complete
